Where two headings read alike, the source gives them in different places.
Assays:
[1] = MTT cell viability assay, Hep G2 cells (serum-free DMEM); conditions: human, Hep G2 cells, Cell viability
Description: (§1) Human hepatoma cell lines Hep G2 and Hep 3 were chosen as the in vitro models of hepatocytes and hepatoma, respectively.

Hep G2 cells = assay: as above; conditions: Homo sapiens
Description: as §1

Hep 3B/T2 cells = assay: Tumor growth of Hep 3B/T2 cells in nude mice; type: in vivo, BALB/c-nu/nu nude mice
Description: The descriptive statistics were summarized as mean±STD. For statistical analysis, Student's t-test was used to determine significance of mean differences between groups.

Hep 3B cells [2] = assay: Cell cycle determination by flow cytometry, Hep 3B; type: cell-based, human; conditions: cell line not given
Hep 3B cells [3] = assay: MTT cell viability assay, Hep 3B cells (serum-free DMEM); conditions: Homo sapiens, Hep3B, 48 h
Description: as §1

[4] = Cycle 2 (Day 63), LOV 37.5 mg/kg/day p.o. days 28-34 and 49-55 and/or taxol 120 μg/kg/2 day i.p. day 36, 38, 40, 57, 59, 61

Question: For CC(=O)O[C@H]1C(=O)[C@@]2(C)[C@H]([C@H](OC(=O)c3ccccc3)[C@]3(O)C[C@H](OC(=O)[C@H](O)[C@@H](NC(=O)c4ccccc4)c4ccccc4)C(C)=C1C3(C)C)[C@]1(OC(C)=O)CO[C@@H]1C[C@@H]2O [Taxol, paclitaxel], which viability at 48 h, 2 nM ([1]; no lovastatin 48 hr, then taxol 2 nM 48 hr) is on record?
Answer: 92.2 ± 1.5%

Question: What about the viability at 48 h, 5 nM ([1]; no lovastatin 48 hr, then taxol 5 nM 48 hr) of the same compound?
Answer: 61.5 ± 2.2%

Question: And the viability at 48 h, 10 nM ([1]; no lovastatin 48 hr, then taxol 10 nM 48 hr)?
Answer: 57.9 ± 3.3%

Question: And the viability at 48 h, 2 nM ([1]; no lovastatin 72 hr, then taxol 2 nM 48 hr)?
Answer: 85.1 ± 1.9%

Question: What about the viability at 72 hr, 2 nM ([1]; no lovastatin 72 hr, then taxol 2 nM 72 hr) of the same compound?
Answer: 77.7 ± 2.6%

Question: And the viability at 48 h, 5 nM ([1]; no lovastatin 72 hr, then taxol 5 nM 48 hr)?
Answer: 64.2 ± 1.2%

Question: What about the viability at 72 h, 5 nM ([1]; no lovastatin 72 hr, then taxol 5 nM 72 hr) of the same compound?
Answer: 65.8 ± 1.3%

Question: What about the viability at 48 h, 10 nM ([1]; no lovastatin 72 hr, then taxol 10 nM 48 hr) of the same compound?
Answer: 60.5 ± 3.2%

Question: And the viability at 72 h, 10 nM ([1]; no lovastatin 72 hr, then taxol 10 nM 72 hr)?
Answer: 63.6 ± 8.4%

Question: And the viability at 96 h, 2 nM ([1]; taxol 2 nM alone, Table 10)?
Answer: 72.4 ± 6.9%

Question: And the viability at 48 h, 2 nM ([1]; taxol 2 nM, 48 hr)?
Answer: 94.5 ± 5.4%

Question: And the viability at 48 h, 2 nM ([1]; taxol 2 nM, 48 hr, Table 9)?
Answer: 88 ± 1.9%

Question: What about the viability at 72 h, 2 nM ([1]; taxol 2 nM, 72 hr) of the same compound?
Answer: 89.2 ± 2.6%

Question: What about the viability at 72 h, 2 nM ([1]; taxol 2 nM, 72 hr, Table 9) of the same compound?
Answer: 89.2 ± 2.6%

Question: What about the viability at 96 h, 2 nM ([1]; taxol 2 nM) of the same compound?
Answer: 66.6 ± 3.5%

Question: And the viability at 120 h, 2 nM ([1]; taxol 2 nM, 120 hr)?
Answer: 65.1 ± 0.9%

Question: What about the viability at 96 h, 5 nM ([1]; taxol 5 nM alone, Table 10) of the same compound?
Answer: 49.3 ± 9.9%

Question: And the viability at 48 h, 5 nM ([1]; taxol 5 nM, 48 hr)?
Answer: 72.9 ± 4%

Question: What about the viability at 48 h, 5 nM ([1]; taxol 5 nM, 48 hr, Table 9) of the same compound?
Answer: 74.7 ± 2.3%

Question: And the viability at 72 h, 5 nM ([1]; taxol 5 nM, 72 hr)?
Answer: 63.7 ± 2.3%

Question: What about the viability at 72 h, 5 nM ([1]; taxol 5 nM, 72 hr, Table 9) of the same compound?
Answer: 63.7 ± 2.3%

Question: What about the viability at 96 h, 5 nM ([1]; taxol 5 nM) of the same compound?
Answer: 36.2 ± 5.5%

Question: And the viability at 120 h, 5 nM ([1]; taxol 5 nM, 120 hr)?
Answer: 33.8 ± 0.6%

Question: And the viability at 96 h, 10 nM ([1]; taxol 10 nM alone, Table 10)?
Answer: 24.8 ± 2.5%

Question: And the viability at 48 h, 10 nM ([1]; taxol 10 nM, 48 hr)?
Answer: 64.2 ± 3.8%

Question: And the viability at 48 h, 10 nM ([1]; taxol 10 nM, 48 hr, Table 9)?
Answer: 58.1 ± 8.1%

Question: And the viability at 72 h, 10 nM ([1]; taxol 10 nM, 72 hr)?
Answer: 39 ± 0.5%

Question: And the viability at 72 h, 10 nM ([1]; taxol 10 nM, 72 hr, Table 9)?
Answer: 39 ± 0.5%

Question: What about the viability at 96 h, 10 nM ([1]; taxol 10 nM) of the same compound?
Answer: 22.7 ± 4.1%

Question: And the viability at 120 h, 10 nM ([1]; taxol 10 nM, 120 hr)?
Answer: 19 ± 3.4%

Question: What about the viability at 48 h, 20 nM ([1]; taxol 20 nM, 48 hr) of the same compound?
Answer: 53.5 ± 1.1%

Question: And the viability at 72 h, 20 nM ([1]; taxol 20 nM, 72 hr)?
Answer: 35.4 ± 3.6%

Question: What about the viability at 48 h, 50 nM ([1]; taxol 50 nM, 48 hr) of the same compound?
Answer: 47 ± 2.3%

Question: And the viability at 72 h, 50 nM ([1]; taxol 50 nM, 72 hr)?
Answer: 33.9 ± 3.7%

Question: And the viability at 48 h, 100 nM ([1]; taxol 100 nM, 48 hr)?
Answer: 34.6 ± 9.1%

Question: And the viability at 72 h, 100 nM ([1]; taxol 100 nM, 72 hr)?
Answer: 19.5 ± 4.6%

Question: What about the viability at 48 h, 200 nM ([1]; taxol 200 nM, 48 hr) of the same compound?
Answer: 35.4 ± 5.5%

Question: And the viability at 72 h, 200 nM ([1]; taxol 200 nM, 72 hr)?
Answer: 15.6 ± 5.8%

Question: What about the viability at 48 h, 500 nM ([1]; taxol 500 nM, 48 hr) of the same compound?
Answer: 29.1 ± 4.2%

Question: And the viability at 72 h, 500 nM ([1]; taxol 500 nM, 72 hr)?
Answer: 11 ± 5%

Question: What about the viability at 48 h, 1000 nM ([1]; taxol 1000 nM, 48 hr) of the same compound?
Answer: 15 ± 3.9%

Question: And the viability at 72 h, 1000 nM ([1]; taxol 1000 nM, 72 hr)?
Answer: 9.9 ± 4.9%

Question: And the IC50 (Hep G2 cells; HepG2, 48 h, read-out: IC50 (cell viability), 48 hr, Table 8)?
Answer: 40.8 ± 7 nM

Question: And the IC50 (Hep G2 cells; HepG2, 48 h, read-out: IC50 (cell viability), 48 hr, Table 9)?
Answer: 12.4 nM

Question: What about the IC50 (Hep G2 cells; HepG2, 72 h, read-out: IC50 (cell viability), 72 hr, Table 8) of the same compound?
Answer: 7.8 ± 1 nM

Question: What about the IC50 (Hep G2 cells; HepG2, 72 h, read-out: IC50 (cell viability), 72 hr, Table 9) of the same compound?
Answer: 7.8 nM

Question: What about the IC50 (Hep G2 cells; HepG2, 96 h, read-out: IC50 (cell viability), 96 hr) of the same compound?
Answer: 3.6 nM

Question: And the IC50 (Hep G2 cells; HepG2, 120 h, read-out: IC50 (cell viability), 120 hr)?
Answer: 3.5 nM

Question: And the Tumor size (Hep 3B/T2 cells; Cycle 1 (Day 42), LOV 37.5 mg/kg/day p.o. days 28-34 and 49-55 and/or taxol 120 μg/kg/2 day i.p. day 36, 38, 40, 57, 59, 61)?
Answer: 0.465 cm^3

Question: What about the Tumor size (Hep 3B/T2 cells; [4]) of the same compound?
Answer: 1.424 cm^3

Question: What about the “percentage of inhibition of tumor size” value (Hep 3B/T2 cells; [4]) of the same compound?
Answer: (−43.1%

Question: What about the Tumor size (Hep 3B/T2 cells; Day 15, LOV 75 mg/kg/day p.o. days 8-14 and/or taxol 120 μg/kg/day i.p. days 15-19, n = 3) of the same compound?
Answer: 0.125 cm^3

Question: What about the Tumor size (Hep 3B/T2 cells; Day 20, LOV 75 mg/kg/day p.o. days 8-14 and/or taxol 120 μg/kg/day i.p. days 15-19, n = 3) of the same compound?
Answer: 0.047 cm^3

Question: What about the Tumor size (Hep 3B/T2 cells; Day 23, LOV 75 mg/kg/day p.o. days 8-14 and/or taxol 120 μg/kg/day i.p. days 15-19, n = 3) of the same compound?
Answer: 0.037 cm^3

Question: What about the “Tumor size (1 × w^2 × 0.52 cm^3) Day 28” value (Hep 3B/T2 cells; Day 28 after inoculation of 1 × 10^7 Hep 3B/T2 cells in male BALB/c-nu/nu nude mice, p.o. lovastatin 37.5 mg/kg/day (days 28-34, 49-55) and/or i.p. taxol 120 μg/kg/2 day (days 36, 38, 40, 57, 59, 61), mean ± SEM) of the same compound?
Answer: 0.170 cm^3

Question: What about the Tumor size (Hep 3B/T2 cells; after two cycles: lovastatin fed 7 days, then paclitaxel injected 3 days (FIG. 38), mean±STD) of the same compound?
Answer: 1.43±0.46 cm^3

Question: What about the “cell cycle arrest stage” value (Hep 3B cells [2]) of the same compound?
Answer: G2/M arrest

Question: And the viability at 0.002 µM (Hep 3B cells [3]; read-out: Cell viability, taxol 2 nM, 48 hr)?
Answer: 93.1 ± 1.3%

Question: And the viability at 0.002 µM (Hep 3B cells [3]; read-out: Cell viability, taxol 2 nM, 48 hr, Table 9)?
Answer: 97 ± 1.5%

Question: What about the viability at 0.005 µM (Hep 3B cells [3]; read-out: Cell viability, taxol 5 nM, 48 hr) of the same compound?
Answer: 91.6 ± 0.5%

Question: And the viability at 0.005 µM (Hep 3B cells [3]; read-out: Cell viability, taxol 5 nM, 48 hr, Table 9)?
Answer: 97.5 ± 3.1%

Question: What about the viability at 0.01 µM (Hep 3B cells [3]; read-out: Cell viability, taxol 10 nM, 48 hr) of the same compound?
Answer: 87.1 ± 1.5%

Question: And the viability at 0.01 µM (Hep 3B cells [3]; read-out: Cell viability, taxol 10 nM, 48 hr, Table 9)?
Answer: 89.1 ± 3%

Question: What about the viability at 0.02 µM (Hep 3B cells [3]; read-out: Cell viability, taxol 20 nM, 48 hr) of the same compound?
Answer: 85.4 ± 0.9%

Question: What about the viability at 0.05 µM (Hep 3B cells [3]; read-out: Cell viability, taxol 50 nM, 48 hr) of the same compound?
Answer: 83.5 ± 0.9%

Question: And the viability at 0.1 µM (Hep 3B cells [3]; read-out: Cell viability, taxol 100 nM, 48 hr)?
Answer: 74.9 ± 1.8%

Question: And the viability at 0.2 µM (Hep 3B cells [3]; read-out: Cell viability, taxol 200 nM, 48 hr)?
Answer: 64.7 ± 4.6%

Question: What about the viability at 0.5 µM (Hep 3B cells [3]; read-out: Cell viability, taxol 500 nM, 48 hr) of the same compound?
Answer: 56.2 ± 0.8%

Question: And the viability at 1 µM (Hep 3B cells [3]; read-out: Cell viability, taxol 1000 nM, 48 hr)?
Answer: 55.3 ± 0.5%

Question: And the IC50 (Hep 3B cells [3]; read-out: IC50 (cell viability), 48 hr, Table 8)?
Answer: 1119 ± 10.1 nM

Question: What about the IC50 (Hep 3B cells [3]; read-out: IC50 (cell viability), 48 hr, Table 9) of the same compound?
Answer: 45.9 nM

— patent US20020173538A1, “Method for sensitizing cancer cells to cancer therapies with a mevalonate-reducing compound” (priority 2000, published 2002)
